Measured values published in paper PMC8429728, “TNK1 is a ubiquitin-binding and 14-3-3-regulated kinase that can be targeted to block tumor growth” (Nature Communications, 2021).
Where two headings read alike, the source gives them in different places.

Legend:
Experiment in all cases: biochemical
Parameters in all cases: Reaction Biology 371-kinase panel at Km ATP, per cent enzyme activity relative to DMSO, single dose in duplicate
PKG1a = biological target: T1, PKG1a (Homo sapiens, UniProt Q13976); settings: duplicate measurements, Km ATP
T1 construct: gene PRKG1; isoform alpha
In short: (§1)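 In vitro selectivity panel: 371 kinases, inhibitor at 300 nM; % activity vs DMSO; IC50 by variable-slope sigmoidal fit, bottom = 0.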

DAPK2 = DAPK2 (Homo sapiens, UniProt Q9UIK4); settings: duplicate measurements, Km ATP
In short: as §1

CDK18/cyclin Y (PCTK3) = CDK18/cyclin Y (PCTK3) (Homo sapiens, UniProt Q07002); settings: duplicate measurements, Km ATP
In short: as §1

MELK = MELK (Homo sapiens, UniProt Q14680); settings: duplicate measurements, Km ATP
In short: as §1

PKCnu/PRKD3 = PKCnu/PRKD3 (Homo sapiens, UniProt O94806); settings: duplicate measurements, Km ATP
In short: as §1

CDK2/cyclin A = CDK2/cyclin A (Homo sapiens, UniProt P24941); settings: duplicate measurements, Km ATP
In short: as §1

PKD2/PRKD2 = PKD2/PRKD2 (Homo sapiens, UniProt Q9BZL6); settings: duplicate measurements, Km ATP
In short: as §1

ERK5/MAPK7 = ERK5/MAPK7 (Homo sapiens, UniProt Q13164); settings: duplicate measurements, Km ATP
In short: as §1

VRK2 = VRK2 (Homo sapiens, UniProt Q86Y07); settings: duplicate measurements, Km ATP
In short: as §1

YSK4/MAP3K19 = YSK4/MAP3K19 (Homo sapiens, UniProt Q56UN5); settings: duplicate measurements, Km ATP
In short: as §1

FER = FER (Homo sapiens, UniProt P16591); settings: duplicate measurements, Km ATP
In short: as §1

TLK1 = TLK1 (Homo sapiens, UniProt Q9UKI8); settings: duplicate measurements, Km ATP
In short: as §1

DMPK = DMPK (Homo sapiens, UniProt Q09013); settings: duplicate measurements, Km ATP
In short: as §1

AKT1 = AKT1 (Homo sapiens, UniProt P31749); settings: duplicate measurements, Km ATP; read-out: % Enzyme Activity (relative to DMSO controls) / TP-0005801 (0.3µM) / Data 1
In short: as §1

LOK/STK10 = LOK/STK10 (Homo sapiens, UniProt O94804); settings: duplicate measurements, Km ATP
In short: as §1

RIPK5 = biological target: T2, RIPK5 (Homo sapiens, UniProt Q6XUX3); settings: duplicate measurements, Km ATP
T2 construct: gene DSTYK
In short: as §1

PASK = PASK (Homo sapiens, UniProt Q96RG2); settings: duplicate measurements, Km ATP; read-out: % Enzyme Activity (relative to DMSO controls) / TP-0005801 (0.3µM) / Data 1
In short: as §1

SSTK/TSSK6 = SSTK/TSSK6 (Homo sapiens, UniProt Q9BXA6); settings: duplicate measurements, Km ATP
In short: as §1

PAK3 = PAK3 (Homo sapiens, UniProt O75914); settings: duplicate measurements, Km ATP
In short: as §1

MASTL = MASTL (Homo sapiens, UniProt Q96GX5); settings: duplicate measurements, Km ATP
In short: as §1

[1] = read-out: % Enzyme Activity (relative to DMSO controls) / TP-0005801 (0.3µM) / Data 1
[2] = read-out: % Enzyme Activity (relative to DMSO controls) / TP-0005801 (0.3µM) / Data 2

Sequence of FER (P16591 whole entry): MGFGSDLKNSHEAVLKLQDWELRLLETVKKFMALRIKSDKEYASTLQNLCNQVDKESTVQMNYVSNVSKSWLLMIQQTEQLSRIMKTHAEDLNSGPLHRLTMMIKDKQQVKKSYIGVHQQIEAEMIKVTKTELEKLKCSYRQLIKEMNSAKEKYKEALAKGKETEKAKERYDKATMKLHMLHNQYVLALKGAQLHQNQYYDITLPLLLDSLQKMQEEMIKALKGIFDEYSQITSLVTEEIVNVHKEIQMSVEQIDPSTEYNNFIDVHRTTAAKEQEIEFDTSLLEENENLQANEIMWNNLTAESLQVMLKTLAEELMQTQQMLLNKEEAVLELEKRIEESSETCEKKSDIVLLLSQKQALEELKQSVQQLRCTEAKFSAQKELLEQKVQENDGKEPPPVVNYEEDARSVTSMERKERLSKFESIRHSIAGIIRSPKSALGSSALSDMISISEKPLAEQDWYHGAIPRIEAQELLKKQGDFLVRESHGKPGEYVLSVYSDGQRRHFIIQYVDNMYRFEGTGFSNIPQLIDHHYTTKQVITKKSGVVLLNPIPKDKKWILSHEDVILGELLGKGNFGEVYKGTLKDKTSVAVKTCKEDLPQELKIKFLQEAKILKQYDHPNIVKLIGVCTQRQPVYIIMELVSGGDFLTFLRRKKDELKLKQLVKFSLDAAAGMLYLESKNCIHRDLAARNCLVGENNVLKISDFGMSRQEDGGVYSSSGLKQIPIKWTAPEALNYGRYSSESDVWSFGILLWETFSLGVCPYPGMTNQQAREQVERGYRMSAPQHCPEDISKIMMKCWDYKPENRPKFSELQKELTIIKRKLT
Sequence of DAPK2 (Q9UIK4 whole entry): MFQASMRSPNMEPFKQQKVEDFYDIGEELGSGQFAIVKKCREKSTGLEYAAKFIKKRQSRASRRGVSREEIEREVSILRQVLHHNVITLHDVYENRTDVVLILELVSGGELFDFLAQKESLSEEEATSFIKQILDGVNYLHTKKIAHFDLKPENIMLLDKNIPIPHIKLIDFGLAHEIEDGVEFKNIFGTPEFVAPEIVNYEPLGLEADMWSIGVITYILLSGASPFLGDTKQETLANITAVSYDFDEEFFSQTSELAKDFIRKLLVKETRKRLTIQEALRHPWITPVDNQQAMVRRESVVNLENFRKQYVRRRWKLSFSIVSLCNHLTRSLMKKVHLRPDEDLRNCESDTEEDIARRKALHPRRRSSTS
Sequence of PKD2/PRKD2 (Q9BZL6 whole entry): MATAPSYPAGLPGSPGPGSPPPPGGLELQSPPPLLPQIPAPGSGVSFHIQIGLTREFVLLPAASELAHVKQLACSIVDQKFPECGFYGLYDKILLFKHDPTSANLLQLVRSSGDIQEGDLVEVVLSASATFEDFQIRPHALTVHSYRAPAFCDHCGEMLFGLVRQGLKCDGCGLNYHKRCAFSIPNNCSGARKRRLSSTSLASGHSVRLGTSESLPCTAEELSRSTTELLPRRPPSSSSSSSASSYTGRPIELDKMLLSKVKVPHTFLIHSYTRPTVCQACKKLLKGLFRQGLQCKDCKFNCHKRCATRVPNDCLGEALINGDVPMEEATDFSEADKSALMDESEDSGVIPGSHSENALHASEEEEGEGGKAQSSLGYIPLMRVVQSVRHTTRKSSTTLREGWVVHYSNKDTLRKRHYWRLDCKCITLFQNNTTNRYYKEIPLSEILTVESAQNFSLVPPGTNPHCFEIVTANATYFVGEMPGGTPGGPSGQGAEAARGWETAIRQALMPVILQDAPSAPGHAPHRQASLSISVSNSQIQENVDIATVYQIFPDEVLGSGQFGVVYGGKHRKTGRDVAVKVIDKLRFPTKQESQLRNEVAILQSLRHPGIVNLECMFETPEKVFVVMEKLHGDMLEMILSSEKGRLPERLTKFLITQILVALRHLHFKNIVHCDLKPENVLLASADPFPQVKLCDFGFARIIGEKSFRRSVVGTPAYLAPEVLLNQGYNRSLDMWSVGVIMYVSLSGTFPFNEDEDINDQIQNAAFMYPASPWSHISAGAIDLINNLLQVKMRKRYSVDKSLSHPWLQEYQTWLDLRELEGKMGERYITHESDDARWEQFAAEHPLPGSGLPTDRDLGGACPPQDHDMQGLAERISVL
Sequence of DMPK (Q09013 whole entry): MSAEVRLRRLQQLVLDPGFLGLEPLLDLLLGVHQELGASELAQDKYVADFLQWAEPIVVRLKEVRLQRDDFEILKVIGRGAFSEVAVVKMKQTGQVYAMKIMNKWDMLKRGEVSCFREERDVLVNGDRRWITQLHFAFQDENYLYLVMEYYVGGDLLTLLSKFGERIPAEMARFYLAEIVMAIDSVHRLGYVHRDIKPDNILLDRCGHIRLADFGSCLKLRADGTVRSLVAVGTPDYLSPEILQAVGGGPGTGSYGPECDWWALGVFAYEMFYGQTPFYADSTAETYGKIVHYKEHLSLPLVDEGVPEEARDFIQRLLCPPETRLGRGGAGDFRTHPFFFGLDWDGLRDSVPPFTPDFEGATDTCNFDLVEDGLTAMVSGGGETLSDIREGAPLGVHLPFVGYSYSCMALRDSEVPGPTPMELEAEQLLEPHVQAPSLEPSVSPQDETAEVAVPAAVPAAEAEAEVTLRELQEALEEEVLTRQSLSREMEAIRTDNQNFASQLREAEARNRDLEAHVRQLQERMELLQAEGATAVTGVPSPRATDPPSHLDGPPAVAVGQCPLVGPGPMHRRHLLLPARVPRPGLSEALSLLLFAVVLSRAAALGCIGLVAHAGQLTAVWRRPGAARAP
Sequence of MELK (Q14680 whole entry): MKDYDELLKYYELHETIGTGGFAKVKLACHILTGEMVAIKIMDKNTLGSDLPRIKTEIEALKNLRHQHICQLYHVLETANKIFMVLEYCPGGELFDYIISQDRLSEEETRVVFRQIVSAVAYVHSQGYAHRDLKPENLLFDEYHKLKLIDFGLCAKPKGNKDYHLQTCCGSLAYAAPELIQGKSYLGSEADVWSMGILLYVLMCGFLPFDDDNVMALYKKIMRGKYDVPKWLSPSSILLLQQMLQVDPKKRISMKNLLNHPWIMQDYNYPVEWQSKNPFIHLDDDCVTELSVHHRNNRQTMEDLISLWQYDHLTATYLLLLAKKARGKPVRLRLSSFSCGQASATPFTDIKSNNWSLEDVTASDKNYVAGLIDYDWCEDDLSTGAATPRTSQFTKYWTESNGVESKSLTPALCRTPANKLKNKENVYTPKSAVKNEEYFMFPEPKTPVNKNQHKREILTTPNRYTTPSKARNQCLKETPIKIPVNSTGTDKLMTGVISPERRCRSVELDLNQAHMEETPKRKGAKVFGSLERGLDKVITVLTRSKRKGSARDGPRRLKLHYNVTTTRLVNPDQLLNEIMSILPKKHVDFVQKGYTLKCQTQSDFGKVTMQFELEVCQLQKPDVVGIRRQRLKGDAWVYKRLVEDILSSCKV
Sequence of MASTL (Q96GX5 whole entry): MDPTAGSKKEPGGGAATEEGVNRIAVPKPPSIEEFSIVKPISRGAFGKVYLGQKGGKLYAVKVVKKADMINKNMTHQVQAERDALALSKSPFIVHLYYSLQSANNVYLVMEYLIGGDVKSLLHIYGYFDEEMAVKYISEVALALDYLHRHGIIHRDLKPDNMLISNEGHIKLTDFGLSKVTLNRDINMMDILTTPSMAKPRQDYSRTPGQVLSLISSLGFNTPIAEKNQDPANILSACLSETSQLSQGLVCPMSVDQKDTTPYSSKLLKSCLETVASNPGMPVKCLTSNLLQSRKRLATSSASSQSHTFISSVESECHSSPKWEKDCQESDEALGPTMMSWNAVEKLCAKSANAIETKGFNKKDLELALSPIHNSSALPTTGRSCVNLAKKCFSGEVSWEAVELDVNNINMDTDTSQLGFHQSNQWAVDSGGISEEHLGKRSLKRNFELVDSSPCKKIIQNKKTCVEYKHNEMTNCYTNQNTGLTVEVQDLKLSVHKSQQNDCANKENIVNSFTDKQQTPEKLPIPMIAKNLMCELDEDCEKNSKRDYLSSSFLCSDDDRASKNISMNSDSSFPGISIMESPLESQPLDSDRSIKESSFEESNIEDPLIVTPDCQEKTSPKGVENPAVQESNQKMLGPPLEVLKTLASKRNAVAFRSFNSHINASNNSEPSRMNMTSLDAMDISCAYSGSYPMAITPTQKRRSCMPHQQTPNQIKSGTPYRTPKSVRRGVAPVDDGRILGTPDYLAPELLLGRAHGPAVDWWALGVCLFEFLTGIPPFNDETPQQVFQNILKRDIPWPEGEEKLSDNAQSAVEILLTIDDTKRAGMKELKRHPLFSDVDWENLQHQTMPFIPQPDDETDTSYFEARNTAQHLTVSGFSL
Sequence of CDK18/cyclin Y (PCTK3) (Q07002 whole entry): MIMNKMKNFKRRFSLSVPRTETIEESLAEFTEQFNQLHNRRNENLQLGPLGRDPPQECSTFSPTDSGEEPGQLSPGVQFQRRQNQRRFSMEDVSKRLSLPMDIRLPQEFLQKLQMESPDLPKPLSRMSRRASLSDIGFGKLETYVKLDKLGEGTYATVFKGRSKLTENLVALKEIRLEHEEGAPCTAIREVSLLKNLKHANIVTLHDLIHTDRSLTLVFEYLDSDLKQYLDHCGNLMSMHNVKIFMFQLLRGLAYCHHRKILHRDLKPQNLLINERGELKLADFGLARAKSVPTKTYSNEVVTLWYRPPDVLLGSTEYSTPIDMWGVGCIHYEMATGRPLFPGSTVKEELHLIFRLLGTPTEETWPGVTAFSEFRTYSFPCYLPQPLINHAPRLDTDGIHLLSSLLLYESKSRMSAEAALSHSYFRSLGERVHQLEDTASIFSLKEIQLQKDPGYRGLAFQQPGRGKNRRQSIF
Sequence of CDK18/cyclin Y (PCTK3) (Q8ND76 whole entry partner): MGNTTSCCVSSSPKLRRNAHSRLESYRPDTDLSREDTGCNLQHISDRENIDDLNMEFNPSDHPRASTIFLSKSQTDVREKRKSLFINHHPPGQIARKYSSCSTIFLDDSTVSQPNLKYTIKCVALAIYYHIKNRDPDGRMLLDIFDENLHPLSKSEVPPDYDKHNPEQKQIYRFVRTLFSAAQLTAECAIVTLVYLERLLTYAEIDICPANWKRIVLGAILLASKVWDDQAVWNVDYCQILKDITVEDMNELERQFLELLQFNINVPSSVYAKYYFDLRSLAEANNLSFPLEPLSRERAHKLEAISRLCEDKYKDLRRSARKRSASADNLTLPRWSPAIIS

## COc1cc(N2CCN(C)CC2)c(C)cc1Nc1ncc(Br)c(Nc2cccnc2N(C)C)n1 [TP-5801]
PKG1a; [1]
  remaining activity at 0.3 µM: 87.6%
PKG1a; [2]
  remaining activity at 0.3 µM: 85.6%
DAPK2; [1]
  remaining activity at 0.3 µM: 95.1%
DAPK2; [2]
  remaining activity at 0.3 µM: 93.2%
CDK18/cyclin Y (PCTK3); [1]
  remaining activity at 0.3 µM: 98%
CDK18/cyclin Y (PCTK3); [2]
  remaining activity at 0.3 µM: 94.2%
MELK; [1]
  remaining activity at 0.3 µM: 93.1%
MELK; [2]
  remaining activity at 0.3 µM: 90.3%
PKCnu/PRKD3; [1]
  remaining activity at 0.3 µM: 55.8%
PKCnu/PRKD3; [2]
  remaining activity at 0.3 µM: 55.5%
CDK2/cyclin A; [1]
  remaining activity at 0.3 µM: 90.8%
CDK2/cyclin A; [2]
  remaining activity at 0.3 µM: 87.6%
PKD2/PRKD2; [1]
  remaining activity at 0.3 µM: 66.5%
PKD2/PRKD2; [2]
  remaining activity at 0.3 µM: 64.3%
ERK5/MAPK7; [1]
  remaining activity at 0.3 µM: 91.6%
ERK5/MAPK7; [2]
  remaining activity at 0.3 µM: 90.9%
VRK2; [1]
  remaining activity at 0.3 µM: 96%
VRK2; [2]
  remaining activity at 0.3 µM: 93.9%
YSK4/MAP3K19; [1]
  remaining activity at 0.3 µM: 93.8%
YSK4/MAP3K19; [2]
  remaining activity at 0.3 µM: 92.8%
FER; [1]
  remaining activity at 0.3 µM: 11.7%
FER; [2]
  remaining activity at 0.3 µM: 11.4%
TLK1; [1]
  remaining activity at 0.3 µM: 103%
TLK1; [2]
  remaining activity at 0.3 µM: 101%
DMPK; [1]
  remaining activity at 0.3 µM: 102%
DMPK; [2]
  remaining activity at 0.3 µM: 101%
AKT1
  remaining activity at 0.3 µM: 105%
LOK/STK10; [1]
  remaining activity at 0.3 µM: 74.7%
LOK/STK10; [2]
  remaining activity at 0.3 µM: 73.7%
RIPK5; [1]
  remaining activity at 0.3 µM: 108%
RIPK5; [2]
  remaining activity at 0.3 µM: 101%
PASK
  remaining activity at 0.3 µM: 102%
SSTK/TSSK6; [1]
  remaining activity at 0.3 µM: 111%
SSTK/TSSK6; [2]
  remaining activity at 0.3 µM: 107%
PAK3; [1]
  remaining activity at 0.3 µM: 99%
PAK3; [2]
  remaining activity at 0.3 µM: 97.9%
MASTL; [1]
  remaining activity at 0.3 µM: 97%
MASTL; [2]
  remaining activity at 0.3 µM: 96.1%
